Measured values reported in the NIST ThermoML archive (doi:10.1016/j.jct.2018.11.014).

Assay: molar heat capacity at constant pressure
Settings: 101.33 kPa, Crystal, Vacuum adiabatic calorimetry

O=C(CO)[C@@H](O)[C@@H](O)[C@H](O)CO [D-(-)-tagatose]
Settings | molar heat capacity at constant pressure [J/K/mol]
10 K | 0.94
14.02 K | 2.674
14.41 K | 2.87
14.81 K | 3.123
15.25 K | 3.307
15.73 K | 3.601
16.23 K | 3.917
16.72 K | 4.241
17.21 K | 4.591
17.74 K | 4.922
18.26 K | 5.33
18.79 K | 5.733
19.32 K | 6.103
19.88 K | 6.523
20 K | 6.61
20.46 K | 6.946
21.02 K | 7.413
21.59 K | 7.933
22.17 K | 8.327
22.74 K | 8.872
23.29 K | 9.326
23.86 K | 9.837
24.43 K | 10.34
24.96 K | 10.79
25.5 K | 11.35
26.05 K | 11.75
26.63 K | 12.36
27.21 K | 12.84
27.8 K | 13.39
28.43 K | 14.04
29.08 K | 14.61
29.7 K | 15.2
30 K | 15.48
30.32 K | 15.75
30.93 K | 16.36
31.54 K | 16.95
32.18 K | 17.49
32.85 K | 18.2
33.51 K | 18.79
34.17 K | 19.45
34.85 K | 20.14
35.56 K | 20.8
36.25 K | 21.42
36.92 K | 22.12
37.6 K | 22.72
38.32 K | 23.45
39.06 K | 24.19
39.8 K | 24.86
40 K | 25.07
40.56 K | 25.59
41.34 K | 26.39
42.12 K | 27.17
42.9 K | 27.84
43.73 K | 28.66
44.59 K | 29.45
45.47 K | 30.31
46.33 K | 31.15
47.17 K | 31.93
48.01 K | 32.72
48.86 K | 33.49
49.73 K | 34.49
50 K | 34.58
50.59 K | 35.1
51.44 K | 35.9
52.28 K | 36.7
53.12 K | 37.43
53.94 K | 38.19
54.73 K | 38.96
55.51 K | 39.6
56.29 K | 40.34
57.09 K | 41.06
57.89 K | 41.8
58.7 K | 42.51
59.51 K | 43.28
60 K | 43.72
60.35 K | 44.06
61.19 K | 44.77
62.02 K | 45.55
62.84 K | 46.28
63.66 K | 46.99
64.47 K | 47.71
65.28 K | 48.44
66.09 K | 49.12
66.9 K | 49.84
67.72 K | 50.53
68.52 K | 51.3
69.3 K | 51.99
70 K | 52.55
70.08 K | 52.63
70.85 K | 53.29
71.66 K | 54
72.51 K | 54.75
73.34 K | 55.43
74.17 K | 56.15
74.99 K | 56.78
75.84 K | 57.55
76.73 K | 58.37
77.61 K | 59.05
78.48 K | 59.83
79.34 K | 60.58
80 K | 61.11
80.24 K | 61.32
81.18 K | 62.13
82.13 K | 62.93
83.07 K | 63.68
84.01 K | 64.47
85 K | 65.34
86.03 K | 66.11
87.06 K | 66.91
88.1 K | 67.79
89.12 K | 68.69
90 K | 69.42
90.18 K | 69.57
91.27 K | 70.49
92.35 K | 71.33
93.42 K | 72.22
94.47 K | 73.05
95.56 K | 73.96
96.68 K | 74.84
97.79 K | 75.75
98.88 K | 76.69
99.96 K | 77.46
100 K | 77.52
101.1 K | 78.37
102.28 K | 79.32
103.46 K | 80.27
104.64 K | 81.16
105.83 K | 82.14
107.05 K | 83.09
108.3 K | 84.09
109.54 K | 85.07
110 K | 85.43
110.79 K | 86.05
112.05 K | 87.01
113.37 K | 88.06
114.74 K | 89.11
116.09 K | 90.16
117.44 K | 91.23
118.77 K | 92.2
120 K | 93.18
120.13 K | 93.3
121.52 K | 94.39
122.9 K | 95.4
124.27 K | 96.48
125.63 K | 97.47
127.06 K | 98.59
128.55 K | 99.75
130 K | 100.79
130.03 K | 100.83
131.5 K | 101.97
132.96 K | 103.07
134.45 K | 104.19
135.97 K | 105.29
137.47 K | 106.45
138.97 K | 107.56
140 K | 108.3
140.45 K | 108.68
141.96 K | 109.8
143.5 K | 110.93
145.03 K | 112.09
146.55 K | 113.1
148.1 K | 114.27
149.72 K | 115.49
150 K | 115.72
151.43 K | 116.75
153.17 K | 118.02
154.9 K | 119.31
156.62 K | 120.56
158.37 K | 121.84
160 K | 123.1
160.14 K | 123.23
161.94 K | 124.54
163.76 K | 125.92
165.57 K | 127.19
167.41 K | 128.53
169.28 K | 129.9
170 K | 130.45
171.14 K | 131.27
172.99 K | 132.6
174.82 K | 134.01
176.68 K | 135.37
178.57 K | 136.72
180 K | 137.8
180.49 K | 138.21
182.43 K | 139.62
184.37 K | 141.02
186.33 K | 142.53
188.32 K | 143.96
190 K | 145.19
190.29 K | 145.43
192.26 K | 146.89
194.22 K | 148.2
196.2 K | 149.78
198.21 K | 151.32
200 K | 152.62
200.21 K | 152.77
202.19 K | 154.24
204.24 K | 155.8
206.37 K | 157.27
208.53 K | 159.03
210 K | 160.09
210.68 K | 160.61
212.82 K | 162.18
214.94 K | 163.84
217.1 K | 165.39
219.28 K | 167.07
220 K | 167.61
221.45 K | 168.71
223.6 K | 170.37
225.82 K | 171.99
228.13 K | 173.74
230 K | 175.16
230.48 K | 175.53
232.81 K | 177.33
235.13 K | 179.15
237.48 K | 180.87
239.92 K | 182.64
240 K | 182.74
242.39 K | 184.45
244.84 K | 186.37
247.28 K | 188.22
249.7 K | 190.03
250 K | 190.36
252.15 K | 192.06
254.63 K | 194.03
257.1 K | 195.94
259.55 K | 197.81
260 K | 198.11
261.98 K | 199.73
264.45 K | 201.55
266.94 K | 203.51
269.42 K | 205.41
270 K | 206.1
271.88 K | 207.63
274.33 K | 209.55
276.81 K | 211.93
279.31 K | 213.91
280 K | 214.24
281.79 K | 215.77
284.26 K | 217.69
286.73 K | 219.65
289.21 K | 221.51
290 K | 222.17
291.73 K | 223.31
294.22 K | 225.32
296.71 K | 227.47
298.15 K | 228.55
299.18 K | 229.22
300 K | 229.99
301.76 K | 231.28
304.46 K | 233.53
307.14 K | 235.53
309.81 K | 237.67
310 K | 237.81
312.46 K | 239.92
315.14 K | 241.99
317.84 K | 244.2
320 K | 245.73
320.53 K | 246.19
323.2 K | 248.11
325.86 K | 250.28
328.54 K | 252.68
330 K | 253.86
331.25 K | 254.96
